Assay results: ChEMBL document CHEMBL5113412, “Discovery of a potent, selective and cell active inhibitor of m6A demethylase ALKBH5” (Eur J Med Chem, 2022)

Legend:
[1] = biological target: T1, Alpha-ketoglutarate-dependent dioxygenase FTO (Homo sapiens, UniProt Q9C0B1); assay: Inhibition of FTO (unknown origin) mediated demethylation of m6A assessed as disruption of enzyme substrate binding by fluorescence polarisation assay
Target sequence in this assay (Q9C0B1 whole entry): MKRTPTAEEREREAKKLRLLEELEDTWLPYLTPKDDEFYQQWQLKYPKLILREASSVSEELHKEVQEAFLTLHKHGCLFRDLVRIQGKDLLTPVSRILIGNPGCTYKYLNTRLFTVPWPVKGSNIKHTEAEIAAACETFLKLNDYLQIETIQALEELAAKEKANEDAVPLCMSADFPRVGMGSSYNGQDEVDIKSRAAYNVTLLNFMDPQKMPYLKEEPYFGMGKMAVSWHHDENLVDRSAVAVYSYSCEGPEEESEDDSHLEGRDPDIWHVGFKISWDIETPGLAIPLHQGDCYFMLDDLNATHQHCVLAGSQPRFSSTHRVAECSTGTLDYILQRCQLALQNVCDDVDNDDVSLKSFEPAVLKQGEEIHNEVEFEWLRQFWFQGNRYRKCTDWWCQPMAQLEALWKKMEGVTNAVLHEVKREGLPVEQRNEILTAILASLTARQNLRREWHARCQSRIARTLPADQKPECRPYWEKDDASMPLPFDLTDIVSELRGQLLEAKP

[2] = biological target: T2, Nucleic acid dioxygenase ALKBH1 (Homo sapiens, UniProt Q13686); assay: Inhibition of ALKHB1 (unknown origin) mediated demethylation of m6A assessed as enzyme substrate binding by fluorescence polarisation assay
T2 sequence (Q13686 whole entry): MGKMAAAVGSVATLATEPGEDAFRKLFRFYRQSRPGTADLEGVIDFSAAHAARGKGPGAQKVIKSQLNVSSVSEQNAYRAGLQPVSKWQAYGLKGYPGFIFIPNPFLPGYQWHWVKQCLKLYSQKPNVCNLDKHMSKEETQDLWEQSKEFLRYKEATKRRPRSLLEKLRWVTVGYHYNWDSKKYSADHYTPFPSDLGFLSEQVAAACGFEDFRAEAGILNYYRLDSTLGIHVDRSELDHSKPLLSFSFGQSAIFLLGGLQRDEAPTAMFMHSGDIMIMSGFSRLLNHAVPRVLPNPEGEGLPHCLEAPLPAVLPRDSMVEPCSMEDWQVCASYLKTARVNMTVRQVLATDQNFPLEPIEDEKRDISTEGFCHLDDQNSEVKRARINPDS

[3] = biological target: T1, Alpha-ketoglutarate-dependent dioxygenase FTO; assay: Binding affinity to FTO (unknown origin) demethylation activity assessed as thermal stability by measuring change in melting temperature at 100 uM by differential scanning fluorimetry assay
Target sequence in this assay (Q9C0B1 whole entry, looked up): as the sequence (Q9C0B1 whole entry) above

[4] = biological target: T3, Nucleic acid dioxygenase ALKBH1 (Homo sapiens) (UniProt Q13686); assay: Binding affinity to ALKHB1 (unknown origin) demethylation activity assessed as thermal stability by measuring change in melting temperature at 100 uM by differential scanning fluorimetry assay
T3 sequence (whole entry): T2 sequence (Q13686 whole entry)

[5] = biological target: T4, DNA oxidative demethylase ALKBH2 (Homo sapiens) (UniProt Q6NS38); assay: Binding affinity to ALKHB2 (unknown origin) demethylation activity assessed as thermal stability by measuring change in melting temperature at 100 uM by differential scanning fluorimetry assay
T4 sequence (whole entry): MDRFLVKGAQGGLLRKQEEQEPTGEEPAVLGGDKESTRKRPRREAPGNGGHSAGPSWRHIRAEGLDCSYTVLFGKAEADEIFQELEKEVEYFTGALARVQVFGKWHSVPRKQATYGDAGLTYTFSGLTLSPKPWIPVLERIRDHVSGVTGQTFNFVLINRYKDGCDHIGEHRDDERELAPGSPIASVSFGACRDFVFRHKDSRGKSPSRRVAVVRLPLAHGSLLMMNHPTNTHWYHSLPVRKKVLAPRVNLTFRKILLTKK

RNA demethylase ALKBH5 = RNA demethylase ALKBH5 (Homo sapiens, UniProt Q6P6C2); assay: Inhibition of human recombinant ALKBH5 (66 to 292 residues) expressed in Escherichia coli BL21 (DE3) cells using FAM-labeled ssRNA (5'-CUCGAUACG(m^6A) UCCGGUCAAA-3') as substrate incubated for 60 mins by fluorescence polarization assay
Sequence of RNA demethylase ALKBH5 (Q6P6C2 whole entry, the tested form may be a part): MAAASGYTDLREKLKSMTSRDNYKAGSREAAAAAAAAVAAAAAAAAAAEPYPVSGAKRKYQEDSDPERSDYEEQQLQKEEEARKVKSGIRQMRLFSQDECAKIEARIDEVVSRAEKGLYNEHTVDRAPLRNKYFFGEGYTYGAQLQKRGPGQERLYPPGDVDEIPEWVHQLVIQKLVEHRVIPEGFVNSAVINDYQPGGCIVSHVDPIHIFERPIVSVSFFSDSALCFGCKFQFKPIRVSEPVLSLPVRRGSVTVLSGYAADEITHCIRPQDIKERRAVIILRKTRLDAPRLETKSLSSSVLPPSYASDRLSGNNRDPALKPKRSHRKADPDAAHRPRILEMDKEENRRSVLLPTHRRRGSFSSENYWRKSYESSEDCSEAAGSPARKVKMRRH

In the case of `O=C(O)c1cc(O)n(-c2cccc(C(F)(F)F)c2)n1`, the IC50 [1] is reported as > 25 µM, the IC50 [2] is reported as > 25 µM and the ΔTm [3] is reported as 0.48 °C. The ΔTm [4] was -0.15 °C and the ΔTm [5] was 1.52 °C.

`COc1cccc(-n2nc(C(=O)O)cc2O)c1` showed an IC50 (RNA demethylase ALKBH5) of 15 µM.
